Results taken from US20250163048A1 (Tango Therapeutics, Inc., priority 2022, published 2025).
pIC50: −log10 of the molar value.

Experiments:
[1] = system: HAP1 MTAP-intact cell line; test: SDMA in-cell western assay, HAP1 MTAP-intact; conditions: Homo sapiens, HAP1, read-out: Hap1 MTAP intact IC50, SDMA in-cell western, HAP1 MTAP-intact cell line
MTAP-deleted cell line = test: viability assay for the MTAP-deleted cell line; format: cell-based; conditions: Homo sapiens, HAP1, viability assay
[2] = system: HAP1 MTAP-deleted cell line; test: SDMA in-cell western assay, HAP1 MTAP-deleted; conditions: for pIC50 / IC90: Homo sapiens; for pIC50: HAP1, read-out: Hap1 MTAP deleted IC50, SDMA in-cell western, HAP1 MTAP-deleted cell line; for IC90: HAP1, read-out: Hap1 MTAP deleted IC90, SDMA in-cell western, HAP1 MTAP-deleted cell line; for Hap1 MTAP intact/deleted ratio: IC50 ratio between HAP1 MTAP-intact and HAP1 MTAP-deleted cell line, SDMA in-cell western

Compound | pIC50 [1] | pIC50 (MTAP-deleted cell line) | pIC50 [2] | IC90 [2] | Hap1 MTAP intact/deleted ratio [2]
C[C@H]1CC[C@H](c2ccc3sc([C@H]4CCN(C)C4)nc3c2)N(C(=O)C(=O)Nc2cncc3cn[nH]c23)C1 (single isomer, unassigned) [Compound 30] | 7.30 to 8.30 | > 7.00 | > 8.30 | < 75 nM | B (“B” indicates an IC50 ratio greater than or equal to 15 fold but lower than 30 fold)
CO[C@H]1C[C@H](c2ccc(F)cc2)N(C(=O)C(=O)Nc2cnc(N)c3cn[nH]c23)C[C@H]1C (single isomer, unassigned) [Compound 38] | < 7.30 | 6.00 to 7.00 | < 7.30 | > 125 nM | C (“C” indicates an IC50 ratio of less than 15 fold)
C[C@H]1CC[C@H](c2ccc3sc(C4CCN(C)CC4)nc3c2)N(C(=O)C(=O)Nc2cncc3[nH]ncc23)C1 (single isomer, unassigned) [Compound 43] | 7.30 to 8.30 | > 7.00 | > 8.30 | < 75 nM | C (“C” indicates an IC50 ratio of less than 15 fold)
C[C@H]1CC[C@H](c2ccc3sc(C4CCN(C)C(=O)C4)nc3c2)N(C(=O)C(=O)Nc2cncc3[nH]ncc23)C1 (single isomer, unassigned) [Compound 73] | < 7.30 | 6.00 to 7.00 | 7.30 to 8.30 | > 125 nM | A (“A” indicates an IC50 ratio greater than or equal to 30 fold)
C[C@@H]1CC[C@@H](c2ccc3sc(CCN(C)C)nc3c2)N(C(=O)C(=O)Nc2cncc3[nH]ncc23)C1 (single isomer, unassigned) [Compound 77, 2-(2-(2-(2-(dimethylamino)ethyl)benzo[d]thiazol-5-yl)-5-methylpiperidin-1-yl)-2-oxo-N-(1H-pyrazolo[3,4-c]pyridin-4-yl)acetamide] | < 7.30 | < 6.00 | < 7.30 | > 125 nM | C (“C” indicates an IC50 ratio of less than 15 fold)
C[C@H]1CC[C@H](c2cccc(OCCN(C)C)c2)N(C(=O)C(=O)Nc2cncc3cn[nH]c23)C1 (single isomer, unassigned) [Compound 78] | < 7.30 | 6.00 to 7.00 | > 8.30 | < 75 nM | B (“B” indicates an IC50 ratio greater than or equal to 15 fold but lower than 30 fold)
C[C@H]1CC[C@H](c2ccc3sc(CCN(C)C)nc3c2)N(C(=O)C(=O)Nc2cncc3[nH]ncc23)C1 (single isomer, unassigned) [Compound 92, 2-(2-(2-(2-(dimethylamino)ethyl)benzo[d]thiazol-5-yl)-5-methylpiperidin-1-yl)-2-oxo-N-(1H-pyrazolo[3,4-c]pyridin-4-yl)acetamide] | < 7.30 | > 7.00 | > 8.30 | > 125 nM | B (“B” indicates an IC50 ratio greater than or equal to 15 fold but lower than 30 fold)
CO[C@@H]1C[C@H](c2ccc(F)cc2)N(C(=O)C(=O)Nc2cnc(N)c3cn[nH]c23)C[C@H]1C (single isomer, unassigned) [Compound 116] | < 7.30 | > 7.00 | > 8.30 | < 75 nM | A (“A” indicates an IC50 ratio greater than or equal to 30 fold)
C[C@H]1CC[C@H](c2ccc3cn([C@@H]4CCN(C)C[C@H]4C)nc3c2)N(C(=O)C(=O)Nc2cncc3cn[nH]c23)C1 (single isomer, unassigned) [Compound 159] | < 7.30 | > 7.00 | > 8.30 | < 75 nM | B (“B” indicates an IC50 ratio greater than or equal to 15 fold but lower than 30 fold)
C[C@H]1CC[C@H](c2ccc3sc([C@@H](C)N(C)C)nc3c2)N(C(=O)C(=O)Nc2cncc3cn[nH]c23)C1 (single isomer, unassigned) [Compound 167] | < 7.30 | > 7.00 | 7.30 to 8.30 | < 75 nM | A (“A” indicates an IC50 ratio greater than or equal to 30 fold)
